Consider 85 sequences from the OligoGym collection.

These antisense oligonucleotides have a phosphorothioate backbone; sugars and methylation of C are not fully specified.
Further: test concentration or dose not given here.

The target of the first data set is BIRC2. As to conditions: ASO.
The sequence CCAAGGTGGGAGATAATG showed a remaining target (mRNA or protein) (fraction of control) of 0.97. On the same count and under the same terms, under ATATAGTTCACCAAACAT stands ≥ 1; under GACCACAAGGAATAAATA, ≥ 1. On the same count and under the same terms, the same measure for TATATGCAGGCTTCTTTC: 0.77; for CCAGATTCTGAATAAAGC: ≥ 1. Consider TTCCCAGTTACTGAGCTT, for which the remaining target (mRNA or protein) (fraction of control) is 0.22. On the same count and under the same terms, the same measure for TTAAGGACTATTCAGCTA: ≥ 1; for ATTCTTATCCACAAATAA: ≥ 1; for ACCTGGGAAAAGTCTTTG: ≥ 1. Same read-out and setting: the same measure for TTGGCTTAAAGTTCAAAA: ≥ 1; for TAGAATTAAGAGGGTTTG: ≥ 1.

Turning to GAGTAAGAACCACTGAAC, the remaining target (mRNA or protein) (fraction of control) was ≥ 1.

On to GGTAACCTAAGTGCTATT, for which the remaining target (mRNA or protein) (fraction of control) is ≥ 1. Regarding AATCAACTCTACTAGCCT, the remaining target (mRNA or protein) (fraction of control) turned out to be 0.53. On the same count and under the same terms, the same measure for TAGAGTTCACAGGAAAAG: ≥ 1. Still for that read-out and setting: the same measure for AAAAGCTAAGTTCACACA: ≥ 1; for TTTCTCATTGGAGACGTA: 0.68; for TTCCTGGTTTCCAGTTCT: 0.54. On the same count and under the same terms, under CATTTCTTCAGCTTGTTT stands ≥ 1. As for TGCCTTTTATTTATATTT, the remaining target (mRNA or protein) (fraction of control) is ≥ 1.

For ATAATTGGTGGGTCAGCA, the remaining target (mRNA or protein) (fraction of control) is ≥ 1.

Regarding TGGTAGGTAAGAAATCTG, the remaining target (mRNA or protein) (fraction of control) was ≥ 1. On the same count and under the same terms, the same measure for AGGTGGATGCACTTCTGA: ≥ 1. As for TTTCTTCACATGAACTAA, the remaining target (mRNA or protein) (fraction of control) was ≥ 1.

With TCAGGTAGGATGAGTATC, the remaining target (mRNA or protein) (fraction of control) was 0.89. Same read-out and setting: under AAGCACTTTAACATGACA stands 0.85; under TTTTACTTTGAACTGTTT, ≥ 1; under ATAACAGACCAATTACTG, ≥ 1. Consider CAATCTGACAAGATCGTG, for which the remaining target (mRNA or protein) (fraction of control) was ≥ 1. In the case of AGTGAAAAGCACCAAAGA, the remaining target (mRNA or protein) (fraction of control) was ≥ 1. On to CTCAGATTTGAAATGCTA, for which the remaining target (mRNA or protein) (fraction of control) was ≥ 1.

TTCCCAACACCTCAAGCC: the remaining target (mRNA or protein) (fraction of control) was found to be 0.45. On the same count and under the same terms, under AAATTACACTCCATAGAA stands ≥ 1; under TTAGATGGCTTCAAGTGT, 0.9; under AAGTCAATACCCACAAGC, ≥ 1. Regarding ACTTTCTTCCTAACTTTG, the remaining target (mRNA or protein) (fraction of control) was ≥ 1. As to TTAGTTAGCCATAAAATT, the remaining target (mRNA or protein) (fraction of control) was ≥ 1.

Regarding TCGCTTGTAAAGGTATCT, the remaining target (mRNA or protein) (fraction of control) is ≥ 1. Turning to CTAGTGTTATCAGAAACG, the remaining target (mRNA or protein) (fraction of control) was ≥ 1. For TACCTTGAATCTCATCAA, the remaining target (mRNA or protein) (fraction of control) was ≥ 1.

The target in a further data set is INPPL1. To be noted: ASO.
For TGCGGCTGGCTGTCTTCA, the remaining target (mRNA or protein) (fraction of control) was 0.85. Turning to TTGCGGCTCCCTGACCTG, the remaining target (mRNA or protein) (fraction of control) was ≥ 1. Still for that read-out and setting: under GGATGCGGTCGTGCGTGA stands 0.86; under TCCCCACTGCCCACTTCC, ≥ 1.

The sequence GCACCAGCCGCCCACCCT came in with a remaining target (mRNA or protein) (fraction of control) of 0.3.

Sequence CGTTGGTGGCGGTTTCTC had a remaining target (mRNA or protein) (fraction of control) of 0.93. With CCTCATAACTTTTCAACC, the remaining target (mRNA or protein) (fraction of control) was ≥ 1. Same read-out and setting: the same measure for GAGATACTGCCCTGACCC: ≥ 1.

On to TCCCTCCCCAGACCCACA, for which the remaining target (mRNA or protein) (fraction of control) is ≥ 1. As for GACAGCACCAGAGTAACC, the remaining target (mRNA or protein) (fraction of control) amounted to 0.69. On the same count and under the same terms, under CCAACCTCAAATGTCCCA stands ≥ 1; under ACGGTGGGATAGGAAGGT, ≥ 1. On the same count and under the same terms, under GACATCACGCCGCAACCC stands 0.39. The sequence CATGGCTGATACGGTTCT returned a remaining target (mRNA or protein) (fraction of control) of 0.98.

CCTTGTCCACCTCACTGT came in with a remaining target (mRNA or protein) (fraction of control) of 0.81. Take CCATAGGATTCATAGCCA: the remaining target (mRNA or protein) (fraction of control) is ≥ 1. Same read-out and setting: the same measure for CACCCCAATAAATAGGCA: ≥ 1. On the same count and under the same terms, the same measure for TCCAAGTCCTCCTCGGTG: ≥ 1; for TCCAGGCAGGTAGAGTAG: ≥ 1; for AGACCCACACAGAACAGT: ≥ 1. Still for that read-out and setting: under GTGGCAGATGGGACAGGG stands ≥ 1; under TGCCCCACCCCAACCAAC, ≥ 1; under TCTGTGACTTCCCAATCT, 0.93.

As for GTGCCTATGAAGACTGAG, the remaining target (mRNA or protein) (fraction of control) stood at 0.4. Same read-out and setting: under GGAGATGAACTGGGAGGT stands 0.48; under CCATAGTCCGAGGGCAGT, 0.88.

In turn, GCACCCCAGCCTCCTCCA gave a remaining target (mRNA or protein) (fraction of control) of 0.79. AAGTAGTTTTGGTTCCTC: the remaining target (mRNA or protein) (fraction of control) was ≥ 1. On the same count and under the same terms, under TGCTCCTGCCTCATCCTT stands 0.54.

For a further data set, the target named is PTEN. To be noted: ASO.
In turn, CGGGCGCCTCGGAAGACC yielded a remaining target (mRNA or protein) (fraction of control) of 0.38. The same measure, in the same setting: the same measure for ACTGGAATAAAACGGGAA: 0.85. For TCTTCTGCAGGATGGAAA, the remaining target (mRNA or protein) (fraction of control) was ≥ 1. The same measure, in the same setting: under TGTTCCTATAACTGGTAA stands 0.42; under CGCTTGGCTCTGGACCGC, 0.16; under GGATAAATATAGGTCAAG, ≥ 1. On the same count and under the same terms, under TGTGAAACAACAGTGCCA stands 0.25; under ACTTCAGTTGGTGACAGA, 0.31; under TAAATAGCTGGAGATGGT, 0.45. On the same count and under the same terms, the same measure for TGGCTGCAGCTTCCGAGA: 0.27; for ATGGTGACAGGCGACTCA: 0.25. In the case of TGCTAGCCTCTGGATTTG, the remaining target (mRNA or protein) (fraction of control) was found to be 0.26. Still for that read-out and setting: under GGAAGAACTCTACTTTGA stands 0.62; under CGAGAGGCGGACGGGACC, ≥ 1; under CCCGCGGCTGCTCACAGG, 0.19. Consider ATTACACCAGTTCGTCCC, for which the remaining target (mRNA or protein) (fraction of control) was 0.41.
